# Active and inactive are the calls of the source.
# Assays:
# [1] = target: T1, DNA repair and recombination protein RAD54-like (Homo sapiens, UniProt Q92698); assay: inhibitors of human RAD54 branch migration, confirmation, biochemical, fluorescence, cherry-picked samples, dose series (AID 651657); format: functional
# T1 sequence (Q92698 whole entry): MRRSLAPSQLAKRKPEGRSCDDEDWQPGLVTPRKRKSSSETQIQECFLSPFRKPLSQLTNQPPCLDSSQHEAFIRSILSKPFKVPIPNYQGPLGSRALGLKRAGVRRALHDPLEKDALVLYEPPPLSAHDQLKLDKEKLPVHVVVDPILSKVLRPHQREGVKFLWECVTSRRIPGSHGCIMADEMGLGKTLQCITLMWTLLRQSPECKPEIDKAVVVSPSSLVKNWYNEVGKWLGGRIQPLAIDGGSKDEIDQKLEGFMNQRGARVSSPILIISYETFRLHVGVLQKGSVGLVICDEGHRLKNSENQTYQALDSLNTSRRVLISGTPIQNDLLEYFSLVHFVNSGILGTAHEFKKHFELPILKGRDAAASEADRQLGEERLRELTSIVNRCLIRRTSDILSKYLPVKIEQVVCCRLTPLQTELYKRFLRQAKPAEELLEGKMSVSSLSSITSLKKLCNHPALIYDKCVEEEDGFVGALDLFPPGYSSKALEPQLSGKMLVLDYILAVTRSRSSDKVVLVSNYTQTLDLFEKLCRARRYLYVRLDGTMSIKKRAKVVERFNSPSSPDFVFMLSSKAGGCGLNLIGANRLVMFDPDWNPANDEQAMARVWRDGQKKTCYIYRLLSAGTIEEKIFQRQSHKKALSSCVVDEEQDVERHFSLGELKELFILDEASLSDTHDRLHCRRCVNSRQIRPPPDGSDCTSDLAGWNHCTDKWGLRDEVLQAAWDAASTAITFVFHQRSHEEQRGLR
# [2] = target: Cytochrome P450 2D6 (Homo sapiens, UniProt P10635);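 note: CYP2D6 member of a cytochrome P450 panel assay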
# Cytochrome P450 2D6, sequence (P10635 whole entry): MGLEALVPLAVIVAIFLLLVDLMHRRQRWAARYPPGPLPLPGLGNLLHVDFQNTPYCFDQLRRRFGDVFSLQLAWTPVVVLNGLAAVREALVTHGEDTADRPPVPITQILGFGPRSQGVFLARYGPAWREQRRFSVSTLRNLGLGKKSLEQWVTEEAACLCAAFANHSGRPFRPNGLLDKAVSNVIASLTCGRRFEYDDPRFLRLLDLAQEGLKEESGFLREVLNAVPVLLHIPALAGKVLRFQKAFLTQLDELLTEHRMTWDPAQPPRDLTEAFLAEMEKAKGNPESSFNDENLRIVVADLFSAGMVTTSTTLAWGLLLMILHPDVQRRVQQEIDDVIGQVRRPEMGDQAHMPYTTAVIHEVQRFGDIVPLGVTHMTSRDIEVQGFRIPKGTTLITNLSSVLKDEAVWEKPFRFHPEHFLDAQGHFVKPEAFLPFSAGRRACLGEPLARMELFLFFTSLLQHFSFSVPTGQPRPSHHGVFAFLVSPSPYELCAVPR
# [3] = control 3'UTR Renilla luciferase suppression, dose response, counter-screen for Shn3 inhibitor project, cell-based, Clone20-Shn3RL, cherry-picked (AID 624133); format: functional
# [4] = target: Protein Wnt-3a (Mus musculus, UniProt P27467); assay: Wnt3a-driven reporter signaling inhibition, dose response, selectivity assay for Gli-SUFU antagonist project, Wnt-LIGHT cells, luminescence (AID 651570); format: functional; settings: read-out: IC50_Mean;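 note: Wnt-LIGHT reporter cells stimulated with conditioned medium from Wnt3a-producing cells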
# Protein Wnt-3a, sequence (P27467 whole entry): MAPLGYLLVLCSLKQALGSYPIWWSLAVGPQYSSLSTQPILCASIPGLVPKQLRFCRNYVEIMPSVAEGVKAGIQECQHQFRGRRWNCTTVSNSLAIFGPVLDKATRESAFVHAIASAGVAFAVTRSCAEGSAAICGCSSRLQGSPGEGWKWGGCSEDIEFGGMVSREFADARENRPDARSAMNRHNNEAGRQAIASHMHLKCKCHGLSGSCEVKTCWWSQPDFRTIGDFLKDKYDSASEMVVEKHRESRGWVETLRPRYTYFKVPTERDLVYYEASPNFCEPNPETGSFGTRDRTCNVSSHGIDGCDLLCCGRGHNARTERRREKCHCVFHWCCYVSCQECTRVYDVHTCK
# [5] = Shn3 3'UTR reporter inhibitors, dose response, cell-based, Clone20 osteoblasts, firefly luciferase, cherry-picked (AID 624132); format: functional;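 note: firefly luciferase luminescence from reporter carrying the Shn3 3'UTR in osteoblasts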
# [6] = target: Glucose-6-phosphate 1-dehydrogenase (Homo sapiens, UniProt P11413); assay: human G6PD enzyme inhibitors, dose response, selectivity assay for P. falciparum G6PD inhibitor project, biochemical, fluorescence (AID 504792); format: functional
# Glucose-6-phosphate 1-dehydrogenase, sequence (P11413 whole entry): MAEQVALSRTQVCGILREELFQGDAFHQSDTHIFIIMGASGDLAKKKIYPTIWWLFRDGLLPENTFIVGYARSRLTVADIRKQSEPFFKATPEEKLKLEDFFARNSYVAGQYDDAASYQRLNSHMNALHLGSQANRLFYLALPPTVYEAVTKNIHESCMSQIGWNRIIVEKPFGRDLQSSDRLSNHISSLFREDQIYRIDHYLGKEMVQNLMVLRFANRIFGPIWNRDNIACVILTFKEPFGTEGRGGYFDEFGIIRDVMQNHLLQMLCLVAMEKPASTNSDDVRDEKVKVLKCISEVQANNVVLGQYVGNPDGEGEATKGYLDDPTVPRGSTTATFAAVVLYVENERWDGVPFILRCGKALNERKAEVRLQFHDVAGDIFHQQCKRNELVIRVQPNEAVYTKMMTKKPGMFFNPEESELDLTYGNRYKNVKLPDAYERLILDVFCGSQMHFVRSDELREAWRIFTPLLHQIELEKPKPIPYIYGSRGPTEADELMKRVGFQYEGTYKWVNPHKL
# [7] = cytotoxicity in MIN6 insulinoma cells, dose response, cytotoxicity control, cell-based, mouse insulinoma (AID 2122); format: functional;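 note: confirmatory high-throughput counterscreen run to flag cytotoxic compounds; mouse MIN-6 beta cells carrying an insulin promoter eGFP reporter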
# [8] = cytotoxicity toward NIH3T3 fibroblasts, dose response, counter-screen, cell-based, ATP luminescence, mouse fibroblasts (AID 2010); format: functional;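 note: cells exposed to compound for about 90 hours before reading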
# [9] = inhibitors of intracellular T. cruzi replication, confirmation, NIH3T3 host cells, beta-gal luminescence (AID 2044); format: functional, cell-based;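 note: intracellular parasites grown in NIH/3T3 mouse fibroblasts as host cells; luminescent beta-galactosidase reporter signal from transgenic T. cruzi replicating inside host cells; inhibitors lower the luminescence signal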
# [10] = insulin promoter down-regulators in MIN6 cells, imaging, high-content screening, mouse beta cells (AID 1628); format: functional
# [11] = system: INS1; assay: beta cell apoptosis inhibitors, cytokine rescue, dose response, luminescence, retest (AID 449756); format: functional, cell-based; settings: Rattus norvegicus;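 note: cell death triggered by IL-1 beta plus TNF-alpha plus IFN-gamma mixture; protective hits raise ATP signal compared with cytokine alone wells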
# [12] = target: Dual specificity tyrosine-phosphorylation-regulated kinase 1A (Rattus norvegicus, UniProt Q63470); format: biochemical, Homo sapiens
# [13] = target: T2, Microphthalmia-associated transcription factor (Homo sapiens, UniProt O75030); assay: TRPM1 promoter luciferase signal decrease, dose response, MITF inhibitor project, cell-based, SK-MEL-5, cherry-picked, set 3 (AID 493073); format: functional
# T2 sequence (O75030 whole entry): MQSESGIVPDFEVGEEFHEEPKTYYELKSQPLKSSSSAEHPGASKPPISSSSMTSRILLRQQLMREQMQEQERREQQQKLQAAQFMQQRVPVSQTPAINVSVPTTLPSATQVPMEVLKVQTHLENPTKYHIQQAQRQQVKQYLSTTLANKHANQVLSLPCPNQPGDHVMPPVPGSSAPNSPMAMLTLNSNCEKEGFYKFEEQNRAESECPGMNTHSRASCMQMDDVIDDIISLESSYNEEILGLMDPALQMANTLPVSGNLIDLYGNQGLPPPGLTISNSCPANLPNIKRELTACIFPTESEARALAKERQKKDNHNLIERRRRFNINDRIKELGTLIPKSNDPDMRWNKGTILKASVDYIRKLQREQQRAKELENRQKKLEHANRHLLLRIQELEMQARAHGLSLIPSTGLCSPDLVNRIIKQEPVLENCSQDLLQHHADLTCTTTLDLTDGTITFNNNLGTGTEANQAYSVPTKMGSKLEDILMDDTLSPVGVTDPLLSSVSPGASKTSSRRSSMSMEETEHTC
# [14] = target: E3 ubiquitin-protein ligase Mdm2 (Homo sapiens, UniProt Q00987); assay: enhancers of MDM2-luciferase reporter signal, concentration-effect titration, project on inhibitors of MDM2 ubiquitin ligase, cellular assay, luminescent readout, 384-well plate format (AID 1394); format: functional;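 note: MDM2 E3 inhibitors raise luminescence so EC50 is for signal enhancement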
# E3 ubiquitin-protein ligase Mdm2, sequence (Q00987 whole entry): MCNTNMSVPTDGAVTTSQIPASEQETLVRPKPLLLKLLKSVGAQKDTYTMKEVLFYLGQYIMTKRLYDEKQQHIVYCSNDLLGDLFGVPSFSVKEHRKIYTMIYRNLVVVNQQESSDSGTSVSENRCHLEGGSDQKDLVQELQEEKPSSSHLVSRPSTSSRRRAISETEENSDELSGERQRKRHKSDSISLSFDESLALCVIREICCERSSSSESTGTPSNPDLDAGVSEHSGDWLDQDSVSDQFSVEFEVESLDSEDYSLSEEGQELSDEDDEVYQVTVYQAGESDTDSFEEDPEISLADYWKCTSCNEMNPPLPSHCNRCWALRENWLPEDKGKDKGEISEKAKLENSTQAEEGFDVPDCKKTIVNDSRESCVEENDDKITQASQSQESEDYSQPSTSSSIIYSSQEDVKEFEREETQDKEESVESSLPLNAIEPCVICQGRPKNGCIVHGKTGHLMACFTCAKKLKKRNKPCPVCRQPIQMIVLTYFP
# [15] = target: T3, Zinc finger protein mex-5 (Caenorhabditis elegans, UniProt Q9XUB2); assay: MEX-5/TCR-2 RNA interaction inhibitors, dose response, biochemical, C. elegans, fluorescence polarization (AID 1960)
# T3 sequence (Q9XUB2 whole entry): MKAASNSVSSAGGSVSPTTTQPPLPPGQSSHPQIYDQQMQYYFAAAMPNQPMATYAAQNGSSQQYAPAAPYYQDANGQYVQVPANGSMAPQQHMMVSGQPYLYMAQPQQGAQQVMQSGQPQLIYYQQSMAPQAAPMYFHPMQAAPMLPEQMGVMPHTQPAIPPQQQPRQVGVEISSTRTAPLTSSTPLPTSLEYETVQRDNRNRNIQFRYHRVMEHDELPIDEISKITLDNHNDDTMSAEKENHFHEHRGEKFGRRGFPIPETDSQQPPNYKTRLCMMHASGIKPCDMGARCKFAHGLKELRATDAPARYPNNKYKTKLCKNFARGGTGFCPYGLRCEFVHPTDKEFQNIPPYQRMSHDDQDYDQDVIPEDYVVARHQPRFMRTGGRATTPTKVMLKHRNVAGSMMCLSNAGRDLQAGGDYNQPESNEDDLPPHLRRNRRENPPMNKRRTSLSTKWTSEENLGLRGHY
# [16] = target: T4, Probable nicotinate-nucleotide adenylyltransferase (Staphylococcus aureus (strain N315), UniProt P65502); format: functional, Staphylococcus aureus subsp. aureus N315;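 for IC50 Mean: confirmatory dose-response retesting of NadD inhibitor hits first found in an ultra-high-throughput screen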
# T4 sequence (P65502 whole entry): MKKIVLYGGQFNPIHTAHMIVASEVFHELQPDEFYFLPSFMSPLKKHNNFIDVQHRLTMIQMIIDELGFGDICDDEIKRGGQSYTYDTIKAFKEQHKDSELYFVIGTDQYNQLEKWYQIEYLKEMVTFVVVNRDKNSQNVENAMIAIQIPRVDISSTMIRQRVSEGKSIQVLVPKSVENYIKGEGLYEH
# [17] = target: T4, Probable nicotinate-nucleotide adenylyltransferase; format: functional, Staphylococcus aureus subsp. aureus N315; settings: read-out: IC50_Mean
# [18] = system: Streptococcus; assay: Group A Streptococcus viability loss, dose response, counter-screen for streptokinase expression inhibitor project, luminescence, BacTiterGlo (AID 1915); format: functional, organism-based;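 note: potency for reduction of bacterial viability or growth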
# [19] = target: T5, RNA-binding protein pos-1 (Caenorhabditis elegans, UniProt G5EF15); assay: inhibitors of POS-1/mex-3 RNA binding, dose response, biochemical, fluorescence polarization (AID 1964);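 note: purified POS-1 fused to maltose binding protein made in E. coli; potency of compounds blocking POS-1 binding to fluorescent RNA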
# T5 sequence (G5EF15 whole entry): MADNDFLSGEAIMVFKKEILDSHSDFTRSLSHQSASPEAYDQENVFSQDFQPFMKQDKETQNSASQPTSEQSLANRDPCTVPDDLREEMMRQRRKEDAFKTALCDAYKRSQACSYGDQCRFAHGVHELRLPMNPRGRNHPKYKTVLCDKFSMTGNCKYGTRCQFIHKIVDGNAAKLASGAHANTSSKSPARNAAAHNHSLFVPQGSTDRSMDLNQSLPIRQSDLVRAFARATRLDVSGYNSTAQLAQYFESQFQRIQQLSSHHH
# [20] = system: Streptococcus sp. 'group A'; assay: growth inhibition of control SK(-) GAS strain, dose response, counter-screen for streptokinase expression inhibitor project, luminescence, kanamycin, BacTiterGlo, confirmation (AID 1900); format: functional, organism-based
# [21] = target: T6, Mannose-6-phosphate isomerase (Homo sapiens, UniProt P34949); assay: PMI enzyme inhibitors, confirmation, biochemical, fluorescence intensity (AID 1535)
# T6 sequence (P34949 whole entry): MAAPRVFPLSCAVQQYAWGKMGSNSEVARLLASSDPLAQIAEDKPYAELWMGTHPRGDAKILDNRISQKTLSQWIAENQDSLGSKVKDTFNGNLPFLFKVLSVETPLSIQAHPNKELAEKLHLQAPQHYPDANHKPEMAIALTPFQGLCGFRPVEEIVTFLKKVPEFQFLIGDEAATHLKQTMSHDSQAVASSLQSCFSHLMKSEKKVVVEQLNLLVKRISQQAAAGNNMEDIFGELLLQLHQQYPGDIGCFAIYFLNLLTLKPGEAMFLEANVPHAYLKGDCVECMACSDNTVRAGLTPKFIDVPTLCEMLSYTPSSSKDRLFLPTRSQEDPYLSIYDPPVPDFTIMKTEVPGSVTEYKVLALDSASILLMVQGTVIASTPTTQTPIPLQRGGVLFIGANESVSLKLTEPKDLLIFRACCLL
# [22] = target: Cytochrome P450 3A4 (Homo sapiens, UniProt P08684);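 note: CYP3A4 tested as one member of a cytochrome P450 panel screen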
# Cytochrome P450 3A4, sequence (P08684 whole entry): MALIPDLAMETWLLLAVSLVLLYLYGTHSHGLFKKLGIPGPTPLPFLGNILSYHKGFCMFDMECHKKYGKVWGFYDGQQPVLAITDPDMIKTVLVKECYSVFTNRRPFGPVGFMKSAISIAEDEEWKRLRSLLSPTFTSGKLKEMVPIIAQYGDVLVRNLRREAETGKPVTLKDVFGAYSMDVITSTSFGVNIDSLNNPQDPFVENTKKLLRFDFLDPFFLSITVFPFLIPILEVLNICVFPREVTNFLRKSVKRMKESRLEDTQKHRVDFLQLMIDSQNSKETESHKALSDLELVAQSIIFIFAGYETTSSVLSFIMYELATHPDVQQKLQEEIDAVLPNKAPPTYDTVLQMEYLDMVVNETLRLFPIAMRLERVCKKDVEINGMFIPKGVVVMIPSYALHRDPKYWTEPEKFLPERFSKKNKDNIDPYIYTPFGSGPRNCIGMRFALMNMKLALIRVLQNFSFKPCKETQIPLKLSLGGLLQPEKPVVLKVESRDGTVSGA
# [23] = microbe, parasite or virus in culture; format: functional; settings: Mycobacterium tuberculosis
# [24] = target: DNA dC->dU-editing enzyme APOBEC-3A (Homo sapiens, UniProt P31941); assay: SAR analysis of small molecule inhibitors of APOBEC3A DNA Deaminase via a fluorescence-based single-stranded DNA deaminase assay.; format: functional; settings: read-out: IC50_Mean
# DNA dC->dU-editing enzyme APOBEC-3A, sequence (P31941 whole entry): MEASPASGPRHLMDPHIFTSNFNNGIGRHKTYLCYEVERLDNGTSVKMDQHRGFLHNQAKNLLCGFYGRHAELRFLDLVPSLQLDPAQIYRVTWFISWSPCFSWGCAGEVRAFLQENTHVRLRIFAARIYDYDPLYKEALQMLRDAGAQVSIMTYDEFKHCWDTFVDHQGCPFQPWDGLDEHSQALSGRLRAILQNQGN
# [25] = target: DNA dC->dU-editing enzyme APOBEC-3G (Homo sapiens, UniProt Q9HC16); assay: APOBEC3G deaminase inhibitors, SAR follow-up, biochemical, fluorescence, single-stranded DNA substrate (AID 602136); format: functional; settings: read-out: IC50_Mean
# DNA dC->dU-editing enzyme APOBEC-3G, sequence (Q9HC16 whole entry): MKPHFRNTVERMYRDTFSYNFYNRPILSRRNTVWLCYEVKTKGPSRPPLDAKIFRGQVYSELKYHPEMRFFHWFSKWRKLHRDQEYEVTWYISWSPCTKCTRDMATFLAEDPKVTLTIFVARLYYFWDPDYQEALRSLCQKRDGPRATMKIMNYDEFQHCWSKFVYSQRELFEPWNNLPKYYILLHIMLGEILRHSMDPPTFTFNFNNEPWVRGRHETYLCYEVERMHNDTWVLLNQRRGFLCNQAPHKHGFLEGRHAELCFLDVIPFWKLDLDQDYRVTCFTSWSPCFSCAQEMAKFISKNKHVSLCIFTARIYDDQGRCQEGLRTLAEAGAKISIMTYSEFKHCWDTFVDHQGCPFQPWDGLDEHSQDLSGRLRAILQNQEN
# [26] = system: HEK293; assay: inhibitors of LMP1-driven NF-kB reporter, dose response, cell-based, HEK293, luciferase, cherry-pick (AID 588343); format: functional; settings: Homo sapiens
compound,measurement,setting,value
Cc1ccc(-c2nc(NCCCO)c3ccccc3n2)cc1,AC50,[1],79.6 µM (active)
O=C1CN(/N=C\c2ccc(-c3ccc([N+](=O)[O-])cc3)o2)C([O-])=N1.[Na+],AC50,[2],inactive
CC(C)=CCC/C(C)=C/CNC(=O)C[C@H]1C[C@H](C(=O)N2CCOCC2)[C@@]2(C)c3[nH]c4cc(CCC(=O)N(C)C)ccc4c3CCN2C1=O,AC50,[3],1.33 µM (active)
same,IC50,[4],23.6 µM (inactive)
same,AC50,[5],1.11 µM (active)
C[C@H](NC(=O)c1cc2c3ccccc3nc-2c[nH]1)C(=O)O,IC50,[6],> 80 µM (inactive)
O=C(Nc1nc2ccc([N+](=O)[O-])cc2s1)c1ccc(S(=O)(=O)N2CCCc3ccccc32)cc1,IC50,[7],1.46 µM (active)
same,EC50,[8],> 30 µM (not active)
same,EC50,[9],2.01 µM (active)
same,IC50,[10],2.16 µM (active)
same,AC50,[11],3.34 µM (active)
N=c1oc2cc(O)ccc2cc1C(=O)Nc1ccc(F)cc1,AC50,[12],14.5 µM (active)
O=C(c1ccc(C(F)(F)F)cc1)C1CCCN(Cc2ccncc2)C1 (configuration not stated),IC50,[4],5.15 µM (active)
CO[C@@H]1COC(=O)CCC[C@@H](C)[C@H](OC)COC(=O)CCC[C@H]1C,AC50,[2],inconclusive
Cc1n[nH]c(NC(=O)/C=C/c2ccccc2)n1,AC50,[13],17.8 µM (active)
same,EC50,[14],1.09 µM (active)
CCCCCCCn1c(=N)n(CC(O)c2ccco2)c2ccccc21 (configuration not stated),IC50,[7],3.55 µM (active)
same,IC50,[10],1.79 µM (active)
Cc1ccc2sc(NNC(=O)c3cc(=O)c4ccccc4o3)nc2c1C,EC50,[15],> 300 µM (inconclusive)
same,IC50,[16],4.17 µM (active)
same,IC50,[17],17.7 µM (active)
same,EC50,[18],2.5 µM (active)
same,EC50,[19],> 300 µM (not active)
same,EC50,[20],0.744 µM (active)
NCCc1cc(O)c(O)cc1O,IC50,[6],> 80 µM (inactive)
O=C(N[C@@H]1C/C=C\C[C@@H](CC(=O)N(CCO)Cc2ccccc2)C(=O)NC[C@H](c2ccccc2)OC1=O)OCC1c2ccccc2-c2ccccc21,AC50,[3],4.32 µM (active)
same,IC50,[4],8.93 µM (active)
same,AC50,[5],7.04 µM (active)
Clc1ncccc1/N=c1\ssnc1Cl,IC50,[21],9.88 µM (active)
Cc1ccc(C(=O)O/N=C\c2ccc(N3CCCCC3)c([N+](=O)[O-])c2)cc1,AC50,[22],22.4 µM (inconclusive)
same,CC50,[23],> 40 µM (active)
same,AC50,[2],inconclusive
Cc1ccc(CN(C)C(=O)CSc2nnc(-c3ccc(F)cc3)n2C)o1,IC50,[24],> 99 µM (inactive)
same,IC50,[25],> 99 µM (inactive)
CCCCN1CCc2cc(/C=C3\C(=O)NC(=S)N(C4CC4)C3=O)ccc21,IC50,[24],57.1 µM (inactive)
same,IC50,[25],68.2 µM (inactive)
O=[N+]([O-])c1ccc(/C=N/Nc2ccnc3cc(Cl)ccc23)o1,AC50,[13],15.3 µM (active)
same,AC50,[11],9.06 µM (active)
COc1ccc(-c2nnc(SCC(=O)N(C)Cc3cccs3)[nH]2)cc1,IC50,[24],> 99 µM (inactive)
same,IC50,[25],> 99 µM (inactive)
COc1ccc2c(c1)CCc1c[nH]nc1-2,AC50,[12],> 120 µM (inactive)
O=C1C(/C=N/Cc2ccncc2)=C(O)c2ccccc21,AC50,[12],7.11 µM (active)
CCc1nnc(NS(=O)(=O)c2ccc(/N=C/c3c(C)nn(-c4ccc(Cl)cc4)c3O)cc2)s1,IC50,[16],6.87 µM (active)
same,IC50,[17],25.5 µM (active)
Cc1cc(O)nc(N=N/C(=N/Nc2ccccc2C)c2ccccc2)n1,AC50,[26],4.66 µM (active)
same,IC50,[7],1.36 µM (active)
same,IC50,[10],1.46 µM (active)

# Source: ChEMBL document CHEMBL1201862, “PubChem BioAssay data set” (2004)
